Data as given in patent US20240246916A1, “7-NITRO-8-HYDROXYQUINOLINE DERIVATIVES, PREPARATION METHOD THEREFORE AND MEDICAL USE THEREOF” (Jiangsu Yahong Meditech Co., Ltd., priority 2021, published 2024).
Values after ≈ are worked out from the molar mass of the structure shown.

Legend:
Format in all cases: cell-based
[1] = system: Staphylococcus aureus (methicillin-resistant and sensitive clinical isolates; ATCC29213); experiment: MIC by micro broth dilution (CLSI), Staphylococcus aureus; conditions: for MIC50 / MIC90: Clinical strain; for MIC50: read-out: MIC50; for MIC90: read-out: MIC90; for MIC: Standard strain ATCC29213, read-out: MIC
Procedure, shortened: (§1)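 In cation-adjusted Mueller-Hinton broth, 10^5 CFU/mL of bacteria met compound concentrations of 128 to 0.06 mg/L. Plates sat in air at 35±2° C for 20 hours.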

[2] = system: Escherichia coli (carbapenem-resistant clinical isolate; ATCC25922); experiment: MIC by micro broth dilution (CLSI), Escherichia coli; conditions: for MIC50 / MIC90: ATCC25922, Clinical strain; for MIC50 / MIC90 / MIC: Escherichia coli; for MIC50: read-out: MIC50; for MIC90: read-out: MIC90; for MIC: Standard strain ATCC25922, read-out: MIC; for inhibitory effect against Escherichia coli compared with the reference drug nitroxoline: MIC comparison
Procedure, shortened: as §1

[3] = system: Acinetobacter baumannii (carbapenem-resistant clinical isolates; ATCC19606); experiment: MIC by micro broth dilution (CLSI), Acinetobacter baumannii; conditions: for MIC50 / MIC90: ATCC19606, Clinical strain; for MIC50 / MIC90 / MIC: Acinetobacter baumannii; for MIC50: read-out: MIC50; for MIC90: read-out: MIC90; for MIC: Standard strain ATCC19606, read-out: MIC
Procedure, shortened: as §1

[4] = system: Prostate cancer cell line LNcaP; experiment: Inhibitory activity on cancer cells, CellTiter-Glo viability, LNcaP; conditions: Homo sapiens, 72 hours treatment
Procedure, shortened: (§2)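 HUVEC seeded at 2000, UM-UC-3 and RM-1 at 3000, LNCaP at 5000 cells/well, each in its own medium, 24 h before dosing. Compounds: 8-point 2.5-fold dilutions from 100 μmol, 72 h at 37 °C, 5% CO2. CellTiter-Glo luminescence; IC50 from growth-inhibition curves.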

[5] = system: Bladder cancer cell line UM-UC-3; experiment: Inhibitory activity on cancer cells, CellTiter-Glo viability, UM-UC-3; conditions: Homo sapiens, UMUC3, 72 hours treatment
Procedure, shortened: as §2

[6] = system: Endothelial cell line HUVEC; experiment: Inhibitory activity on cells, CellTiter-Glo viability, HUVEC; conditions: Homo sapiens, 72 hours treatment
Procedure, shortened: as §2

[7] = system: Mouse prostate cancer cell line RM1; experiment: Inhibitory activity on cancer cells, CellTiter-Glo viability, RM1; conditions: 72 hours treatment
Procedure, shortened: as §2

MIC50 [1] [µg/mL]	MIC90 [1] [µg/mL]	MIC [1] [µg/mL]	MIC50 [2] [µg/mL]	MIC90 [2] [µg/mL]	MIC [2] [µg/mL]	MIC50 [3] [µg/mL]	MIC90 [3] [µg/mL]	MIC [3] [µg/mL]	IC50 [4] [µM]	IC50 [5] [µM]	IC50 [7] [µM]	Compound	IC50 [6] [µM]	inhibitory effect against Escherichia coli compared with the reference drug nitroxoline [2]	inhibitory effect against Acinetobacter baumannii compared with the reference drug nitroxoline ([3]; MIC comparison)
2 (≈ 5.57 µM)	4 (≈ 11.1 µM)	4 (≈ 11.1 µM)	> 128	> 128	> 128	> 128	> 128	> 128	0.96	5.28	2.62	O=[N+]([O-])c1cc(F)c2c(N3CCC(C(F)(F)F)CC3)ccnc2c1O [Example 70, 5-Fluoro-7-nitro-4-(4-(trifluoromethyl)piperidin-1-yl)quinolin-8-ol]	2.78	–	–
2 (≈ 5.5 µM)	4 (≈ 11 µM)	8 (≈ 22 µM)	> 128	> 128	> 128	> 128	> 128	> 128	1.53	6.8	2.51	CCOC(=O)C1CCN(c2ccnc3c(O)c([N+](=O)[O-])cc(F)c23)CC1 [Example 71, Ethyl 1-(5-fluoro-8-hydroxy-7-nitroquinolin-4-yl)piperidine-4-carboxylate]	2.7	–	–

Continued, compound first:

Compound	MIC50 [1] [µg/mL]	MIC90 [1] [µg/mL]	MIC [1] [µg/mL]	MIC50 [2] [µg/mL]	MIC90 [2] [µg/mL]	MIC [2] [µg/mL]	MIC50 [3] [µg/mL]	MIC90 [3] [µg/mL]	MIC [3] [µg/mL]	IC50 [4] [µM]	IC50 [5] [µM]	IC50 [7] [µM]	IC50 [6] [µM]	inhibitory effect against Escherichia coli compared with the reference drug nitroxoline [2]	inhibitory effect against Acinetobacter baumannii compared with the reference drug nitroxoline ([3]; MIC comparison)
CS(=O)(=O)N1CCN(c2ccnc3c(O)c([N+](=O)[O-])cc(Cl)c23)CC1 [Example 48, 5-Chloro-4-(4-(methylsulfonyl)piperazin-1-yl)-7-nitroquinolin-8-ol]	64 (≈ 165 µM)	64 (≈ 165 µM)	64 (≈ 165 µM)	> 128	> 128	> 128	> 128	> 128	> 128	10.6	10.6	14.4	6.58	–	–
O=[N+]([O-])c1ccc2c(C3CCCCC3)ccnc2c1O [Example 32, 4-Cyclohexyl-7-nitroquinolin-8-ol]	1 (≈ 3.67 µM)	1 (≈ 3.67 µM)	1 (≈ 3.67 µM)	64 (≈ 235 µM)	64 (≈ 235 µM)	64 (≈ 235 µM)	32 (≈ 118 µM)	32 (≈ 118 µM)	32 (≈ 118 µM)	0.23	1.09	0.6	0.89	–	–
O=[N+]([O-])c1cc(Cl)c2c(Cl)ccnc2c1O [Example 29, 4,5-dichloro-7-nitroquinolin-8-ol]	0.5 (≈ 1.93 µM)	1 (≈ 3.86 µM)	1 (≈ 3.86 µM)	4 (≈ 15.4 µM)	8 (≈ 30.9 µM)	4 (≈ 15.4 µM)	2 (≈ 7.72 µM)	4 (≈ 15.4 µM)	2 (≈ 7.72 µM)	7.03	9.11	6.5	6.22	comparable to that of the reference drug nitroxoline	comparable to that of the reference drug nitroxoline
O=[N+]([O-])c1ccc2c(C(F)(F)F)ccnc2c1O [Example 62, 7-Nitro-4-trifluoromethylquinolin-8-ol]	2 (≈ 7.75 µM)	4 (≈ 15.5 µM)	2 (≈ 7.75 µM)	8 (≈ 31 µM)	8 (≈ 31 µM)	4 (≈ 15.5 µM)	4 (≈ 15.5 µM)	4 (≈ 15.5 µM)	4 (≈ 15.5 µM)	2.49	11.2	4.82	3.54	comparable to that of the reference drug nitroxoline	–
CC1(C)CCN(c2ccnc3c(O)c([N+](=O)[O-])cc(Cl)c23)CC1 [Example 41, 5-Chloro-4-(4,4-dimethylpiperidin-1-yl)-7-nitroquinolin-8-ol]	32 (≈ 95.3 µM)	32 (≈ 95.3 µM)	32 (≈ 95.3 µM)	> 128	> 128	> 128	> 128	> 128	> 128	0.48	1.03	2.02	2.02	–	–
